Laboratory results reported in US12264134B2 (Merck Sharp & Dohme LLC, priority 2018, dated 2025).

Experiments:
[1] = biological target: T1, IDO1 (Homo sapiens, UniProt P14902); test: IDO1 Cellular Assay in HeLa Cells Stimulated with IFNγ; format: cell-based; conditions: read-out: HeLa Cell Potency, IC50
[2] = biological target: T1, IDO1; test: IDO1 Human Whole blood Assay; format: cell-based; parameters: Human whole blood was drawn in sodium heparin coated tubes from healthy internal donors; from tissue; host or cells: human whole blood from healthy donors, stimulated with LPS and IFNγ; conditions: LPS and IFNγ stimulated, 18 h, read-out: Human Whole Blood Potency, IC50
Method in brief: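 Heparinized healthy-donor human whole blood was preincubated 15 min with compound, then stimulated with LPS and IFNγ (100 ng/mL final) for 18 h at 37 °C. Plasma kynurenine was quantified by LC/MS/MS against a D6-kynurenine internal standard, and IC50s came from 4-parameter sigmoidal fits.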

T1 sequence (P14902 whole entry): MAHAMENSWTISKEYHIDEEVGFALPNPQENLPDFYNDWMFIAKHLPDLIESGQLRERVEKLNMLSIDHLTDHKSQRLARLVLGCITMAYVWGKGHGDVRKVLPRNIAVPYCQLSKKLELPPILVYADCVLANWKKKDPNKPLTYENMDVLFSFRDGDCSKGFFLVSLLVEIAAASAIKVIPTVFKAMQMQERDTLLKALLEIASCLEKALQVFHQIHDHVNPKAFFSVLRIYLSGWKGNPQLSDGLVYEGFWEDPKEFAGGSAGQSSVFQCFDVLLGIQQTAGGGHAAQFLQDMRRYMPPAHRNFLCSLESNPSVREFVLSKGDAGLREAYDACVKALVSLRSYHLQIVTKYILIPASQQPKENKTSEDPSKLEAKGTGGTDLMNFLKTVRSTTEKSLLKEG

Compound | IC50 [1] | IC50 [2]
Cc1cccc(N2CCN(C(=O)Cn3nc(C(=O)N4CC[C@@H](O)[C@@H](F)C4)c4c3C[C@H]3C[C@@H]43)CC2)c1C [Example 288, 1-[4-(2,3-dimethylphenyl)piperazin-1-yl]-2-{(3bR,4aR)-3-[(3S,4R)-3-fluoro-4-hydroxypiperidine-1-carbonyl]-3b,4,4a,5-tetrahydro-1H-cyclopropa[3,4]cyclopenta[1,2-c]pyrazol-1-yl}ethan-1-one] | 1.71 nM | 100 nM
Cc1cccc(N2CCN(C(=O)Cn3nc(C(=O)N4CC[C@H](O)[C@H](F)C4)c4c3C[C@H]3C[C@@H]43)CC2)c1C [Example 289, 1-[4-(2,3-dimethylphenyl)piperazin-1-yl]-2-{(3bR,4aR)-3-[(3R,4S)-3-fluoro-4-hydroxypiperidine-1-carbonyl]-3b,4,4a,5-tetrahydro-1H-cyclopropa[3,4]cyclopenta[1,2-c]pyrazol-1-yl}ethan-1-one] | 1.95 nM | 180 nM
Cc1cccc(N2CCN(C(=O)Cn3nc(C(=O)N4CC[C@@H](O)C[C@@H]4C)c4c3C[C@H]3C[C@@H]43)CC2)c1C [Example 290, 1-[4-(2,3-dimethylphenyl)piperazin-1-yl]-2-{(3bR,4aR)-3-[(2S,4R)-4-hydroxy-2-methylpiperidine-1-carbonyl]-3b,4,4a,5-tetrahydro-1H-cyclopropa[3,4]cyclopenta[1,2-c]pyrazol-1-yl}ethan-1-one] | 2.03 nM | 771 nM
Cc1cccc(N2CCN(C(=O)Cn3nc(C(=O)N4CC[C@H](O)[C@@H](F)C4)c4c3C[C@H]3C[C@@H]43)CC2)c1C [Example 291, 1-[4-(2,3-dimethylphenyl)piperazin-1-yl]-2-{(3bR,4aR)-3-[(3S,4S)-3-fluoro-4-hydroxypiperidine-1-carbonyl]-3b,4,4a,5-tetrahydro-1H-cyclopropa[3,4]cyclopenta[1,2-c]pyrazol-1-yl}ethan-1-one] | 2.79 nM | 212 nM
Cc1cccc(N2CCN(C(=O)Cn3nc(C(=O)N4CCC(F)(CO)CC4)c4c3CCC4)CC2)c1C [Example 293, 1-[4-(2,3-dimethylphenyl)piperazin-1-yl]-2-{3-[4-fluoro-4-(hydroxymethyl)piperidine-1-carbonyl]-5,6-dihydrocyclopenta[c]pyrazol-1(4H)-yl}ethan-1-one] | 5.46 nM | 178 nM
Cc1cccc(N2CCN(C(=O)Cn3nc(C(=O)N4C[C@@H](C)O[C@@H](C)C4)c4c3[C@H]3C[C@H]3C4)CC2)c1C [Example 294, 2-{(4aS,5aS)-3-[(2R,6S)-2,6-dimethylmorpholine-4-carbonyl]-4,4a,5,5a-tetahydro-1H-cyclopropa[4,5]cyclopenta[1,2-c]pyrazol-1-yl}-1-[4-(2,3-dimethylphenyl)piperazin-1-yl]ethan-1-one] | 5.59 nM | 1450 nM
Cc1cccc(N2CCN(C(=O)Cn3nc(C(=O)N4C[C@@H](C)O[C@@H](C)C4)c4c3[C@@H]3C[C@@H]3C4)CC2)c1C [Example 296, 2-{(4aR,5aR)-3-[(2R,6S)-2,6-dimethylmorpholine-4-carbonyl]-4,4a,5,5a-tetrahydro-1H-cyclopropa[4,5]cyclopenta[1,2-c]pyrazol-1-yl}-1-[4-(2,3-dimethylphenyl)piperazin-1-yl]ethan-1-one] | 7.99 nM | 543 nM
Cc1cccc(N2CCN(C(=O)Cn3nc(C(=O)N4CCC5(CO)CC4C5)c4c3CCC4)CC2)c1C [Example 297, 1-[4-(2,3-dimethylphenyl)piperazin-1-yl]-2-{3-[5-(hydroxymethyl)-2-azabicyclo[3.1.1]heptane-2-carbonyl]-5,6-dihydrocyclopenta[c]pyrazol-1(4H)-yl}ethan-1-one] | 11.3 nM | 1220 nM
Cc1c(Cl)cccc1N1CCN(C(=O)Cn2nc(C(=O)N3CCC(F)(CN)CC3)c3c2C[C@H]2C[C@@H]32)C2(CC2)C1 [Example 314, 2-{(3bR,4aR)-3-[4-(aminomethyl)-4-fluoropiperidine-1-carbonyl]-3b,4,4a,5-tetrahydro-1H-cyclopropa[3,4]cyclopenta[1,2-c]pyrazol-1-yl}-1-[7-(3-chloro-2-methylphenyl)-4,7-diazaspiro[2.5]octan-4-yl]ethan-1-one] | 4.88 nM | 846 nM

Now those with a lower IC50 [1], led by results:

IC50 [1] | IC50 [2] | Compound
1.52 nM | 44 nM | Cc1cccc(N2CCN(C(=O)Cn3nc(C(=O)N4CCC(F)(CO)CC4)c4c3C[C@H]3C[C@@H]43)CC2)c1C [Example 286, 1-[4-(2,3-dimethylphenyl)piperazin-1-yl]-2-{(3bR,4aR)-3-[4-fluoro-4-(hydroxymethyl)piperidine-1-carbonyl]-3b,4,4a,5-tetrahydro-1H-cyclopropa[3,4]cyclopenta[1,2-c]pyrazol-1-yl}ethan-1-one]
1.46 nM | 58 nM | Cc1cccc(N2CCN(C(=O)Cn3nc(C(=O)N4CCN(C(=O)CO)CC4)c4c3C[C@H]3C[C@@H]43)CC2)c1C [Example 285, 1-[4-(2,3-dimethylphenyl)piperazin-1-yl]-2-{(3bR,4aR)-3-[4-(hydroxyacetyl)piperazine-1-carbonyl]-3b,4,4a,5-tetrahydro-1H-cyclopropa[3,4]cyclopenta[1,2-c]pyrazol-1-yl}ethan-1-one]
1.14 nM | 403 nM | Cc1cccc(N2CCN(C(=O)Cn3nc(C(=O)N4CC[C@@H](O)[C@H](C)C4)c4c3C[C@H]3C[C@@H]43)CC2)c1C [Example 284, 1-[4-(2,3-dimethylphenyl)piperazin-1-yl]-2-{(3bR,4aR)-3-[(3R,4R)-4-hydroxy-3-methylpiperidine-1-carbonyl]-3b,4,4a,5-tetrahydro-1H-cyclopropa[3,4]cyclopenta[1,2-c]pyrazol-1-yl}ethan-1-one]
1.13 nM | 163 nM | Cc1cccc(N2CCN(C(=O)Cn3nc(C(=O)N4C[C@@H](C)O[C@@H](C)C4)c4c3C[C@H]3C[C@@H]43)CC2)c1C [Example 283, 2-{(3bR,4aR)-3-[(2R,6S)-2,6-dimethylmorpholine-4-carbonyl]-3b,4,4a,5-tetrahydro-1H-cyclopropa[3,4]cyclopenta[1,2-c]pyrazol-1-yl}-1-[4-(2,3-dimethylphenyl)piperazine-1-yl]ethan-1-one]
0.97 nM | 294 nM | Cc1cccc(N2CCN(C(=O)Cn3nc(C(=O)N4CC[C@@H](O)[C@@H](C)C4)c4c3C[C@H]3C[C@@H]43)CC2)c1C [Example 281, 1-[4-(2,3-dimethylphenyl)piperazin-1-yl]-2-{(3bR,4aR)-3-[(3S,4R)-4-hydroxy-3-methylpiperidine-1-carbonyl]-3b,4,4a,5-tetrahydro-1H-cyclopropa[3,4]cyclopenta[1,2-c]pyrazol-1-yl}ethan-1-one]
0.79 nM | 127 nM | Cc1cccc(N2CCN(C(=O)Cn3nc(C(=O)N4CC[C@H](O)[C@H](C)C4)c4c3C[C@H]3C[C@@H]43)CC2)c1C [Example 280, 1-[4-(2,3-dimethylphenyl)piperazin-1-yl]-2-{(3bR,4aR)-3-[(3R,4S)-4-hydroxy-3-methylpiperidine-1-carbonyl]-3b,4,4a,5-tetrahydro-1H-cyclopropa[3,4]cyclopenta[1,2-c]pyrazol-1-yl}ethan-1-one]
